Experiments:
[1] = target: T1, human m3 muscarinic receptor (Homo sapiens, UniProt P20309); assay: Affinity for human muscarinic receptors ([3H]-NMS binding, CHO cell membranes); conditions: qualitative statement
T1 construct: expressed in transfected cells; host or cells: CHO (Chinese Hamster Ovarian) cells, crude membrane fraction
Experimental: Chinese Hamster Ovarian cells (CHO) expressing the human recombinant m1, m2, m3, m4 and m5 receptors were cultured in Ham's F12 media supplemented with 100 IU/ml of penicillin, 100 μg/ml of streptomycin, 400 μg/ml of geneticin and 5% of fetal bovine serum. Cell cultures were maintained in a humidified incubator at 37° C. and 5% CO2.
Confluent CHO cells expressing human m1, m2, m3, m4 and m5 muscarinic receptors were harvested and resuspended in phosphate buffered saline without calcium and magnesium. The cell suspension was centrifuged at 1500×g for 3 min (4° C.). The cell pellet was homogenized in a 15 mM Tris-HCl (pH 7.5) buffer containing 2 mM MgCl2, 0.3 mM EDTA and 1 mM EGTA. The crude membrane fraction was collected by two consecutive centrifugation steps at 40,000×g for 25 min (4° C.). The final pellet was resuspended, at a protein concentration ranging from 2 to 6 mg/ml, in a 7.5 mM Tris-HCl (pH 7.5) buffer containing 12.5 mM MgCl2, 0.3 mM EDTA, 1 mM EGTA and 250 mM sucrose and stored in liquid nitrogen.
Binding assays were performed according to procedure described in: Buckley N. J., Bonner T. I., Buckley C. M., Brann M. R., Mol. Pharmacol. (1989), 35, 469-476, but with slight modifications.
Briefly, 25 to 50 μg of membrane proteins were incubated at room temperature in 1 ml of a 50 mM Tris-HCl (pH 7.4) buffer containing 2 mM of MgCl2, 0.1 nM of [^3H]-NMS (N-methylscopolamine, 85 Ci/mmol, from Apbiotech, UK) and increasing concentrations of test compound dissolved in DMSO (1% final concentration). Non specific binding was measured in the presence of 1 μM atropine. After 60 (m2) or 120 (m3) min. incubation, assays were stopped by rapid vacuum filtration of the samples through glass fiber filters (Filtermat A, Wallac, Belgium) presoaked in 0.3% polyethyleneimine for at least 2 h. Samples were further rinsed with 8 ml of ice-cold 50 mM Tris-HCl (pH 7.4) buffer. Radioactivity trapped onto the filter was counted in a Betaplate counter (Wallac). Competition binding curves were analyzed by non-linear regression with XLfit software (UDBS, UK).

PDE IV = PDE IV enzymatic activity (SPA phosphodiesterase assay, cytosolic fraction from U937 cells); assay type: biochemical; conditions: qualitative statement
Experimental: Cytosolic fraction from U937 cells pre-stimulated for 4 h at 37° C. with a mixture of rolipram 30 μM and salbutamol 1 μM (Torphy T. J., Zhou H. L., Cieslinski L. B., J. Pharmacol. Exp. Ther. (1992), 263 (3), 1195-1205).
Assays were performed in 100 μL of 50 mM Tris HCl buffer (pH 7.4) containing 5 mM MgCl2, 2 mM EGTA, 20 nM of [^3H]-cAMP (40-60 Ci/mmol), the cytosolic fraction of 50,000 U937 cells and the appropriate concentration of test compound (usually 10 μM) dissolved in DMSO (final assay concentration not exceeding 1%). After 30 min incubation at room temperature, 0.5 mg of SPA yttrium silicate beads are added to each sample. Radioactivity bound to the beads (5′-AMP) is determined by liquid scintillation. Non PDE IV activity and/or non specific binding of the labeled substrate to the SPA beads is defined as the residual radioactivity remaining in the presence of rolipram 32 μM (non PDE IV activity represents about 40% of total activity). PDE IV activity is determined by subtracting the non PDE TV activity from the total activity.

T1 sequence (P20309 whole entry): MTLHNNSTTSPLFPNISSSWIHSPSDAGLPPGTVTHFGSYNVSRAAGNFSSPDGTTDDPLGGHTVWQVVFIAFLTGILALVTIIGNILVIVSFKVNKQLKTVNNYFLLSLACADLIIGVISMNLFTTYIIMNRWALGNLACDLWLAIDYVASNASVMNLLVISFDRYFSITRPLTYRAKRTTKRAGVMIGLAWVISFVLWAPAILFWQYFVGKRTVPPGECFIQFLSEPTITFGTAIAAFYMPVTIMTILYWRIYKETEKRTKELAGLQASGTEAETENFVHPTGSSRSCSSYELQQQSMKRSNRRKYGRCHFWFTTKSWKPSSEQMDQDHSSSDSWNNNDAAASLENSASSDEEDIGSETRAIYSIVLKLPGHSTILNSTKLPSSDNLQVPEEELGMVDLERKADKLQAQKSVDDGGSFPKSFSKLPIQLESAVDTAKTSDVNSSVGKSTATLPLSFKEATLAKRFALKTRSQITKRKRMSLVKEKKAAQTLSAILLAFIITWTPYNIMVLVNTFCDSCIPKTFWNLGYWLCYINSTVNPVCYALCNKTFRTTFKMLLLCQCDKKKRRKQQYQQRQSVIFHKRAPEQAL

Compound	Dual high affinities: m3 receptor part [1]	Dual high affinities: PDE IV part (PDE IV)
Cc1c(NC2CC2)nc(C2CC2)nc1N1CCC(C(F)(F)F)CC1 [Compound 77, N,2-dicyclopropyl-5-methyl-6-[4-(trifluoromethyl)piperidin-1-yl]-4-pyrimidinamine]	high affinities	high affinities
c1c(N2CCCCCC2)nc(C2CC2)nc1N1CCC1 [Compound 192, 1-(6-azetidin-1-yl-2-cyclopropylpyrimidin-4-yl)azepane]	high affinities	high affinities
CC1CC1c1nc(NC2CCCCC2)cc(NC2CC2)n1 (single isomer, unassigned) [Compound 144, N^4-cyclohexyl-N^6-cyclopropyl-2-(2-methylcyclopropyl)-4,6-pyrimidinediamine]	high affinities	high affinities
Cc1c(NC2CC2)nc(C2CC2)nc1N1CC=CCC1 [Compound 112, N,2-dicyclopropyl-6-(3,6-dihydro-1(2H)-pyridinyl)-5-methyl-4-pyrimidinamine]	high affinities	high affinities
Cc1c(NC2CC2)nc(C2CC2C)nc1N1CCCCCC1 (single isomer, unassigned) [Compound 67, 6-(1-azepanyl)-N-cyclopropyl-5-methyl-2-(2-methylcyclopropyl)-4-pyrimidinamine]	high affinities	high affinities
Cc1c(NC2CCC(C)CC2)nc(C2CC2)nc1NC1CC1 (centres unmarked) [Compound 145, N^4,2-dicyclopropyl-5-methyl-N^6-(4-methylcyclohexyl)-4,6-pyrimidinediamine]	high affinities	high affinities
c1c(NC2CC2)nc(C2CC2)nc1N1CCCCCC1 [Compound 62, 6-(1-azepanyl)-N,2-dicyclopropyl-4-pyrimidinamine]	high affinities	high affinities
Cc1c(NCc2c(F)cccc2F)nc(C2CC2)nc1NC1CC1 [Compound 132, N^4,2-dicyclopropyl-N^6-(2,6-difluorobenzyl)-5-methyl-4,6-pyrimidinediamine]	high affinities	high affinities
C1CCCN(c2nc(C3CC3)nc3c2CCCN3)CC1 [Compound 155, 4-azepan-1-yl-2-cyclopropyl-5,6,7,8-tetrahydro-pyrido[2,3-d]pyrimidine]	high affinities	high affinities
Cc1c(NC2CC2)nc(C2CC2C)nc1N1CCC(C)CC1 (racemic) [Compound 98, N-cyclopropyl-5-methyl-2-(2-methylcyclopropyl)-6-(4-methyl-1-piperidinyl)-4-pyrimidinamine]	high affinities	high affinities
CCC1CCN(c2nc(C3CC3)nc(NC3CC3)c2C)CC1 [Compound 86, N,2-dicyclopropyl-6-(4-ethyl-1-piperidinyl)-5-methyl-4-pyrimidinamine]	high affinities	high affinities
Cc1c(N2CCCCCC2)nc(C2CC2)nc1N1CCC1 [Compound 184, 1-(6-azetidin-1-yl-2-cyclopropyl-5-methylpyrimidin-4-yl)azepane]	high affinities	high affinities
CCc1c(NC2CC2)nc(C2CC2)nc1N1CCSCC1 [Compound 118, N,2-dicyclopropyl-5-ethyl-6-(4-thiomorpholinyl)-4-pyrimidinamine (1:1)]	high affinities	high affinities

— patent publication US7544675B2, “Chemical compounds with dual activity, processes for their preparation and pharmaceutical compositions” (UCB, S.A., priority 2002, dated 2009)
